# From patent US20130156755A1, “CANCER THERAPY USING A COMBINATION OF A HSP90 INHIBITORY COMPOUNDS AND A VEGF INHIBITOR” (Synta Pharmaceuticals Corp., priority 2010, published 2013)
# Entries after “also recorded” stand apart in the source; their conditions may differ.
# Key:
# [1] = tested on: RERF-LC-AI^IVP human lung tumor cells; experiment: nude mouse xenograft model, in vivo growth rate of RERF-LC-AI^IVP tumors; settings: 5 times per week, 15 doses, nude mice
# Experimental: The human squamous non-small cell lung cancer cell line, RERF-LC-AI (RCB0444; S. Kyoizumi, et al., Cancer. Res. 45:3274-3281, 1985), was obtained from the Riken Cell Bank (Tsukuba, Ibaraki, Japan). The cell line was cultured in growth media prepared from 50% Dulbecco's Modified Eagle Medium (high glucose), 50% RPMI Media 1640, 10% fetal bovine serum (FBS), 1% 100× L-glutamine, 1% 100× penicillin-streptomycin, 1% 100× sodium pyruvate and 1% 100× MEM non-essential amino acids. FBS was obtained from American Type Culture Collection (Manassas, Va., USA) and all other reagents were obtained from Invitrogen Corp. (Carlsbad, Calif., USA). […]
# The growth media was replaced every 2-3 days until the flask became 90% confluent, typically in 5-7 days. […] The supernatant was aspirated and the cell pellet was resuspended in 10 ml of growth media and the cell number determined using a hemocytometer. […]
# Seven to eight week old, female Crl:CD-1-nuBR (nude) mice were obtained from Charles River Laboratories (Wilmington, Mass., USA) Animals were housed 4-5/cage in micro-isolators, with a 12 hr/12 hr light/dark cycle, acclimated for at least 1 week prior to use and fed normal laboratory chow ad libitum. […] Tumor volumes (V) were calculated by caliper measurement of the width (W), length (L) and thickness (T) of tumors using the following formula: V=0.5236×(L×W×T). […]
# [2] = tested on: human NSCLC cell line HCC827; experiment: SCID mouse xenograft study, in vivo growth of HCC827 tumors; settings: 4 doses (FIG. 8)
# Experimental: Tumor-bearing animals (8 mice/group) were injected 1 time per week for a total of 4 doses (arrowheads) with vehicle alone, Compound 1 alone, bevacizumab alone or a combination of Compound 1 and bevacizumab dosed concurrently. Compound 1 was i.v. injected and bevacizumab was i.p. injected. The average tumor volumes for each group (error bars represent SEM) were determined every 2-4 days.
# [3] = tested on: human NSCLC cell line NCI-H1975; experiment: SCID mouse xenograft model, in vivo growth of NCI-H1975 tumors
# Experimental: (§1) The human non-small cell lung cancer (NSCLC) cell line, NCI-H1975 (ATCC #CRL-5908) was obtained from the American Type Culture Collection (ATCC; Manassas, Va., USA). The human multiple myeloma cell line, RPMI 8226 (ATCC #CCL-155) was also obtained from the ATCC.
# (§2) NCI-H1975 cells were cultured in growth media prepared from 50% Dulbecco's Modified Eagle Medium (high glucose), 50% RPMI Media 1640 (4.5 g/L glucose), 10% fetal bovine serum (FBS), 10 mM HEPES, 1% 100× Penicillin-Streptomycin, 1% 100× sodium pyruvate and 1% 100× MEM non-essential amino acids. RPMI 8226 cells were cultured in growth media prepared with RPMI Media 1640 (4.5 g/L glucose), 10% FBS, 10 mM HEPES, 1% 100× Penicillin-Streptomycin, 1% 100× sodium pyruvate and 1% 100× MEM non-essential amino acids. FBS was obtained from ATCC and all other reagents were obtained from Invitrogen Corp. (Carlsbad, Calif., USA). Cells that had been cryopreserved in liquid nitrogen were rapidly thawed at 37° C. and transferred to a tissue culture flask containing growth media and then incubated at 37° C. in a 5% CO2 incubator. To expand the RPMI 8226 cell line, growth media was changed every 2-3 days and cultures were passaged 1:3 to 1:5 every 3-5 days. When the a 175 cm^2 flask reached approximately 20-40×10(6) total cells, the above passaging process was repeated until sufficient cells had been obtained for implantation into mice. To expand the NCI-H1975 cell line, cultures were split 1:5 every 3 days when 175 cm^2 flasks became 85% confluent. Cultures were passaged by washing with 10 mL of room temperature phosphate buffered saline (PBS) and then disassociating cells by adding 5 mL 1× trypsin-EDTA and incubating at 37° C. until the cells detached from the surface of the flask. To inactivate the trypsin, 5 mL of growth media was added and then the contents of the flask were centrifuged to pellet the cells. The supernatant was aspirated and the cell pellet was resuspended in 10 mL of growth media and the cell number determined using a hemocytometer. Cells were seeded into 175 cm^2 flasks containing 50 mL of growth media and incubated at 37° C. in a 5% CO2 incubator. When the flasks reached 85% confluence, the above passaging process was repeated until sufficient cells had been obtained for implantation into mice.
# (§3) Six to eight week old, female CB17/Icr-Prkdc^scid/Crl (SCID) mice were obtained from Charles River Laboratories (Wilmington, Mass., USA) Animals were housed 4-5/cage in micro-isolators, with a 12 hr/12 hr light/dark cycle, acclimated for at least 1 week prior to use and fed normal laboratory chow ad libitum. Animals were between seven to thirteen weeks of age at implantation. To implant NCI-H1975 or RPMI 8226 tumor cells into SCID mice, cells were collected as described above, washed in PBS and resusupended at a concentration of 5×10(7) cells/mL in 50% non-supplemented medium and 50% Matrigel Basement Membrane Matrix (#354234; BD Biosciences; Bedford, Mass., USA). Using a 27 gauge needle and 1 cc syringe, 5×10(6) […] or RPMI 8226 cells in 0.1 mL of a cell suspension were injected subcutaneously into the flanks of SCID mice.
# (§4) For the NCI-H1975 model, tumors were then permitted to develop in vivo until the majority reached approximately 100-225 mm^3 in tumor volume, which required ˜1½ weeks. For the RPMI 8226 model, tumors were permitted to develop in vivo until the majority reached approximately 80-200 mm^3 in tumor volume, which required ˜3½ weeks. […] Tumor volumes (V) were calculated by caliper measurement of the width (W), length (L) and thickness (T) of tumors using the following formula: V=0.5236×(L×W×T). […]
# [4] = tested on: human multiple myeloma cell line RPMI 8226; experiment: SCID mouse xenograft model, in vivo growth of RPMI 8226 tumors
# Experimental: as §1, §2, §3, §4
# [5] = highest non-severely toxic dose (HNSTD) in tumor-bearing SCID mice; format: in vivo, mouse; settings: i.v. dosed once per week, tumor-bearing SCID mice (data not shown)
# Experimental: The combination of Compound 1 and bevacizumab was also examined in the NCI-H1975 model using higher doses of each test article. […] The HNSTD was determined based on prior studies and was defined as the dose and dosing schedule at which no morbidity was observed, and at which no individual animal lost ≧20% of its body weight and no treatment group lost ≧10% average body weight over the course of the study.
# [6] = body weight changes in nude mouse RERF-LC-AI^IVP xenograft study; format: in vivo; settings: 200 mg/kg body weight i.p., 5 times per week, 15 doses, nude mice
# Experimental: Seven to eight week old, female Crl:CD-1-nuBR (nude) mice were obtained from Charles River Laboratories (Wilmington, Mass., USA) Animals were housed 4-5/cage in micro-isolators, with a 12 hr/12 hr light/dark cycle, acclimated for at least 1 week prior to use and fed normal laboratory chow ad libitum. Studies were conducted on animals between 8 and 12 weeks of age at implantation. To implant RERF-LC-AI tumor cells into nude mice, the cells were trypsinized as above, washed in PBS and resuspended at a concentration of 50×10(6) cells/ml in 50% non-supplemented RPMI Media 1640 and 50% Matrigel Basement Membrane Matrix (#354234; BD Biosciences; Bedford, Mass., USA). Using a 27 gauge needle and 1 cc syringe, 0.1 ml of the cell suspension was injected subcutaneously into the flank of each nude mouse. Tumor volumes (V) were calculated by caliper measurement of the width (W), length (L) and thickness (T) of tumors using the following formula: V=0.5236×(L×W×T).
# The Hsp90 inhibitor, 17-allylamino-17-demethoxygeldanamycin (17-AAG), was employed as a positive control (Albany Molecular Research, Albany, N.Y., USA). Stock solutions of test articles were prepared by dissolving the appropriate amounts of each compound in dimethyl sulfoxide (DMSO) by sonication in an ultrasonic water bath. Stock solutions were prepared weekly, stored at −20° C. and diluted fresh each day for dosing. […]
compound,measurement,setting,value
"C=CCNC1=C2C[C@@H](C)C[C@H](OC)[C@H](O)[C@@H](C)/C=C(\C)[C@H](OC(N)=O)[C@@H](OC)/C=C\C=C(/C)C(=O)NC(=CC1=O)C2=O [Compound 17-AAG, 17-allylamino-17-demethoxygeldanamycin, reference compound]",tumor growth (growth rate of tumor cells),[1]; 75 mg/kg body weight i.p.,inhibited tumor growth; also recorded: decreased the growth rate
"CC(C)c1cc(-c2nnc(O)n2-c2ccc3c(ccn3C)c2)c(O)cc1O [Compound 1, 3-(2,4-DIHYDROXY-5- ISOPROPYL-PHENYL)-4-(1- METHYL-INDOL-5-YL)-5- HYDROXY-[1,2,4] TRIAZOLE]",tumor growth,[2]; 150 mg/kg i.v. once per week,moderately inhibited tumor growth
same,% T/C value,"[3]; 50 mg/kg i.v. once per week (3 doses), day 29, SCID mice",39%
same,tumor growth,"[3]; 50 mg/kg i.v. once per week, 3 doses (FIG. 3)",moderately inhibited tumor growth
same,% T/C value,"[3]; 150 mg/kg i.v. once per week (4 doses), day 38, SCID mice",3%
same,tumor growth,"[3]; 150 mg/kg i.v. once per week, 4 doses (FIG. 4)",substantially inhibited tumor growth
same,tumor growth,"[4]; 12.5 mg/kg i.v. 5 times per week, 15 doses (FIG. 5)",moderately inhibited tumor growth
same,% T/C value,"[4]; 12.5 mg/kg i.v. five times per week (15 doses), day 49, SCID mice",63%
same,% T/C value,"[4]; second study, single dose 12.5 mg/kg, over three days (data not shown)",83%
same,highest non-severely toxic dose (HNSTD),[5],150 mg/kg
bevacizumab: Humanized monoclonal antibody that blocks VEGF; VEGF inhibitor purchased from Genentech [reference compound],tumor growth,[2]; 10 mg/kg i.p. once per week,moderately inhibited tumor growth
same,% T/C value,"[3]; 2 mg/kg i.p. once per week (3 doses), day 29, SCID mice",18%
same,tumor growth,"[3]; 2 mg/kg i.p. once per week, 3 doses (FIG. 3)",moderately inhibited tumor growth
same,% T/C value,"[3]; 10 mg/kg i.p. once per week (4 doses), day 38, SCID mice",17%
same,tumor growth,"[3]; 10 mg/kg i.p. once per week, 4 doses (FIG. 4)",moderately inhibited tumor growth
same,tumor growth,"[4]; 0.3 mg/kg i.p. 2 times a week, 6 doses (FIG. 5)",moderately inhibited tumor growth
same,% T/C value,"[4]; 0.3 mg/kg i.p. twice per week (6 doses), day 49, SCID mice",26%
same,% T/C value,"[4]; second study, single dose 1 mg/kg, over three days (data not shown)",42%
"CCc1cc(-c2nnc(S)n2-c2ccc(OC)c3c2ccn3C(C)C)c(O)cc1O [Compound 26, 3-(2,4-DIHYDROXY-5-ETHYL- PHENYL)-4-(1-ISOPROPYL-7- METHOXY-INDOL-4-YL)-5- MERCAPTO-[1,2,4] TRIAZOLE]",overt toxicity (effect on body weights),[6],not overtly toxic; also recorded: not associated with overt toxicity
same,tumor growth (growth rate of tumor cells),[1]; 200 mg/kg body weight i.p.,inhibited tumor growth; also recorded: decreased the growth rate
